Reference: patent US5135849A, “In-vitro methods for identifying compositions which are agonists and antagonists of androgens” (priority 1989, dated 1992)
Like-named read-outs stand apart in the source and are kept apart here.

Experiments:
LNCaP cells [1] = experiment: Phase 1 protocol to identify androgen agonist properties (LNCaP cell proliferation in CDHS medium); type: cell-based, human; conditions: for CHARACTERISTICS: classification from Phase 1 and Phase 2 protocols; for PHASE 1 CELL COUNT: final cell number per well at the optimal test conc.; for PHASE 1 CELL COUNT / cell yields compared with DHT alone, in words / OPTIMAL TEST CONC. (Phase 1): 10% CDHS; for agonistic / proliferative activity, in words: Phase 1 protocol, CDHS-supplemented media; for cell yields compared with DHT alone, in words: 3×10^-8 M
Source text: This protocol measures the potential agonistic properties of the substance under test. All manipulations are to be carried out under sterile conditions using disposable plastic tissue culture multiwell plates with all manipulations preferrably being performed in a tissue culture hood.
1. The cell line of choice is the LNCaP-FGC cell culture, an androgen-sensitive prostate tumor cell line. The LNaP cell line is routinely grown in 5% fetal bovine serum--supplemented Dulbecco's modified Eagle minimal essential medium (hereinafter "5% FBS/DME"), at 37° C. in a 95% air--5% CO2 atmosphere.
2. The cultured cells growing in 5% FBS/DME are harvested by treatment with trypsin (1:250)--EDTA (0.2%). The cells are detached by brief exposure to trypsin for about two minutes. To avoid excessive proteolysis, the reaction is quenched by addition of equal volumes of 5% FBS/DME. The resulting cell suspension is collected into a sterile centrifuge tube and resuspended by pipetting gently. The aliquots of this cell suspension thus obtained are dispersed by means of a Skatron dispenser into individual wells containing the seedling medium (1 ml of 5% FBS/DME per well) of a multiwell plate. Each final prepared suspension preferably contains 50,000 cells in a volume of 1.0 ml. It is desirable that the number of cells be counted and verified by means of a Coulter Counter (Coulter Electronics, Hialeah, FL).
The number of wells in each plate will correspond to the number of concentrations per test substances to be evaluated and thus is merely a question of choice or convenience to the user. Into each well, 25 microliter (hereinafter "ul") aliquots of the prepared cell suspension are added using a 1.0 ml syringe fitted with a 19 gauge needle attached to a repetitive Dunn pipetter (Skatron Dispenser). The microtiter plate is then gently shaken to avoid unequal cell distribution within each individual well. The seeded cells are then allowed to attach to the plastic surface of the well proper over a period of 24-72 hours' duration after which the fluid is changed to the experimental maintaining medium.
3 At the time of test, all the seeded cells in each well of the multiwell plate receive 10% heat inactivated--charcoal-dextran human stripped serum (CDHS) in DME at a volume of 0.9 ml per well. Although higher concentrations of CDHS may be utilized up to and including 40% concentrations, the 10% concentration is most preferred.
5. To the other prepared (seeded) wells, 100 ul of the test substance to be evaluated is added as a 10X stock solution to achieve final concentrations ranging from 10^-5 M to at least 10^-12 M. The substance under test is preferably prepared as a stock solution in ethanol, most preferrably as a 10^-3 M solution. All dilutions from the stock preparation are made using DME. The ethanol concentration in the culture medium should be kept below […] by volume. This preparative technique and precaution avoids the need to filter the various volumes of test substance to achieve sterility. This is particularly valuable because steroidal compositions are known to become adsorbed to the commercially obtained filter membranes used for sterilization. The addition of the test substance in appropriate concentrations to the cultured cells and the maintaining medium forms a series of individual reaction mixtures, each of which is varied only by the concentration of the test substance present in the well.
6. After the series of individual reaction mixtures are formed, all of the cultured cells under test in each well of the microtiter plate are incubated at 37° C. preferably in an atmosphere of 5% CO2 /95% air under saturating humidity. During this incubation time, it is desired and preferred that the cultured cells employed in the test be maintained in an atmosphere most advantageous for survival and growth of that cell line. The incubation period preferably is in the range of from 5 to 7 days' duration.

LNCaP cells [2] = experiment: Phase 2 protocol for androgen antagonistic properties (LNCaP proliferation with 3×10^-10 M 5α-DHT plus test substance); conditions: for antagonistic activity, in words: Phase 2 protocol
androgen receptor = molecular target: T1, androgen receptor (Homo sapiens, UniProt P10275, T878A); experiment: Competition for androgen receptors with 3H-testosterone in LNCaP cytosol-nuclear extracts (RBA); type: binding; conditions: for RBA (relative binding affinity to the androgen receptor): Table II, 5α-DHT = 100, 6×10^-9 M 3H-testosterone
T1 construct: the presence of specific androgen receptors in LNCaP cells; endogenous in cells; extract or intact cells for the saturation analysis
T1 sequence (P10275 whole entry T878A): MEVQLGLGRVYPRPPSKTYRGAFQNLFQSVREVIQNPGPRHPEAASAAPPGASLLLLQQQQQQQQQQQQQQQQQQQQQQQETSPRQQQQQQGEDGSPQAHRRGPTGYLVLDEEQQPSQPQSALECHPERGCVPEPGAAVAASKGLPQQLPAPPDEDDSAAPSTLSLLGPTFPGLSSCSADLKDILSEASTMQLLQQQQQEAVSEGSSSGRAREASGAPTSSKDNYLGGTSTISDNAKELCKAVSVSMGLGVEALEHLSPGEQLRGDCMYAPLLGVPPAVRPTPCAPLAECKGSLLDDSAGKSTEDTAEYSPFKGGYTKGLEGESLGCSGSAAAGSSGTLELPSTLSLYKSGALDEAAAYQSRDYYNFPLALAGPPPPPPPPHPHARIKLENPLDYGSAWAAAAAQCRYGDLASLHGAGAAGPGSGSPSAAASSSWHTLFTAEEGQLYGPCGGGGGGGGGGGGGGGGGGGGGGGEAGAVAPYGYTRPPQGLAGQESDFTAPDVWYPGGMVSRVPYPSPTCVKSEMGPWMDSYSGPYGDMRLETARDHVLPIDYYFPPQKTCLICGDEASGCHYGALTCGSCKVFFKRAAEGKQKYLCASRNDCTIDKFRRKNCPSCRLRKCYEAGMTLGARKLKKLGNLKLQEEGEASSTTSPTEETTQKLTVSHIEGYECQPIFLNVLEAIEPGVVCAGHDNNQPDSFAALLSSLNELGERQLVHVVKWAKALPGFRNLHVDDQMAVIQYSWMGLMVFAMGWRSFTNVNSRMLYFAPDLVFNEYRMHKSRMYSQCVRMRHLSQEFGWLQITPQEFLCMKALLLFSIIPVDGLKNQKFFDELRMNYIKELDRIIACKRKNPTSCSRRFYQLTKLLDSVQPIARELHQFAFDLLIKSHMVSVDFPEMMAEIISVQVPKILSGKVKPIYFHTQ
Description: Steroid receptors measurement: The presence of intracellular sex steroid binding proteins was investigated in whole cell extracts as well as in intact cells. Cytosolic and nuclear extracts were obtained after centrifugation (105,000 g, 45 min.) of a sonicated cellular suspension in TKE buffer (10 mM Tris, 500 mM KCl, 0.5 mM EDTA, pH 7.4). Aliquots of this extract were incubated for 18 hours at 4° C. with increasing concentrations (2×10^- M to 2×10^-8 M) of labelled steroids, with and without a 200-fold excess of the corresponding unlabelled steroid. Bound and free fractions were separated by dextran-coated charcoal adsorption. Intact cells grown in monolayer culture were assayed for specific steroid binding [Olea-Serrano et al., Eur. J. Cancer Clin. Oncol. 21:965-973 (1983)]. Briefly, the cells were incubated in 12-well plates during 50 minutes at 37° C. in DME containing the labelled steroid with and without excess of cold competitor. The range of concentrations used was the same as that in the cytosolic-nuclear extract assay. […] The intracellular radioactivity was extracted with ethanol after ice-cold PBS washing. In both types of experiments, Scatchard analysis of the saturation data was used to quantify the maximal binding capacity (Bmax) and the affinity parameters (dissociation constant, Kd) using the SCAFIT program [Munson et al., Anal. Biochem. 107:220-239 (1980)].
Cytosol-nuclear extracts were used to study competition for androgen receptors. […] The relative binding affinity (RBA) was calculated from the equation: […]

[3] = with 3×10^-10 M 5α-DHT, 10% CDHS

In the case of `C[C@]12CC[C@@H](O)C[C@@H]1CC[C@@H]1[C@@H]2CC[C@]2(C)[C@@H](O)CC[C@@H]12` [3α-diol, 5α-androstene, 3α,17β-diol], the CHARACTERISTICS (LNCaP cells [1]) is reported as “full agonist” and the “PHASE 1 CELL COUNT” value (LNCaP cells [1]) is reported as 2.5 × 10^5.
`C[C@]12CCC(=O)C[C@@H]1CC[C@@H]1[C@@H]2CC[C@]2(C)[C@@H](O)CC[C@@H]12` [5α-DHT, 5α-dihydrotestosterone] was tested, and the CHARACTERISTICS (LNCaP cells [1]) was “full agonist” and the “PHASE 1 CELL COUNT” value (LNCaP cells [1]) was 2.5 × 10^5.
For `C[C@]12CCC(=O)C=C1CC[C@@H]1[C@@H]2[C@@H](O)C[C@@]2(C)[C@H]1CC[C@]2(O)C(=O)CO` [hydrocortisone], the CHARACTERISTICS (LNCaP cells [1]) was “quiescent” and the “PHASE 1 CELL COUNT” value (LNCaP cells [1]) was 5 × 10^4.
With `CC(=O)[C@H]1CC[C@H]2[C@@H]3CC=C4C[C@@H](O)CC[C@]4(C)[C@H]3CC[C@]12C` [pregnenolone] the CHARACTERISTICS (LNCaP cells [1]) was “full agonist”, the proliferative potency (LNCaP cells [1]; compared with 5α-DHT values) was 1% and the “PHASE 1 CELL COUNT” value (LNCaP cells [1]) was 3.9 × 10^5.
With `C[C@]12CC[C@H]3[C@@H](CCC4=CC(=O)CC[C@@]43C)[C@@H]1CC[C@@H]2O` [testosterone] the “agonistic / proliferative activity, in words” value (LNCaP cells [1]) was “proliferative pattern similar to that obtained with 5α-DHT”, the CHARACTERISTICS (LNCaP cells [1]) was “full agonist” and the “PHASE 1 CELL COUNT” value (LNCaP cells [1]) was 2.6 × 10^5.
`CC1(C)NC(=O)N(c2ccc([N+](=O)[O-])c(C(F)(F)F)c2)C1=O` [anandron, 5,5-dimethyl-3-(4-nitro-3-(trifluoromethyl)-phenyl)-2,4-imidasolidinedione] was tested, and the “cell yields compared with DHT alone, in words” value (LNCaP cells [1]) was “increased cell yields at values consistently above those obtained with DHT alone”, the CHARACTERISTICS (LNCaP cells [1]) was “full agonist” and the “PHASE 1 CELL COUNT” value (LNCaP cells [1]) was 4.0 × 10^5.
With `CC(=O)O[C@]1(C(C)=O)CC[C@H]2[C@@H]3C[C@H](C)C4=CC(=O)CC[C@]4(C)[C@H]3CC[C@@]21C` [medroxy progesterone, medroxyprogesterone acetate] the CHARACTERISTICS (LNCaP cells [1]) was “full agonist”, the “PHASE 1 CELL COUNT” value (LNCaP cells [1]) was 4.0 × 10^5 and the “OPTIMAL TEST CONC. (Phase II)” value (LNCaP cells [2]) was 3 µM. The “PHASE II CELL COUNT” value (LNCaP cells [2]) was 4.0 × 10^5 and the “antagonistic activity, in words” value (LNCaP cells [2]) was “absence of antagonistic effects”.
“epidermal growth factor: Epidermal Growth Factor (Collaborative Research; Creative Biomolecules) (NSDSECPLSHDGYCLHDGVCMYIEALDKYACNCVVGYIGERCQYRDLKWWELR; Epidermal growth factor; UniProt P01133 971-1023, looked up)” was tested, and the “OPTIMAL TEST CONC. (Phase 1)” value (LNCaP cells [1]) was 100 ng/mL, the CHARACTERISTICS (LNCaP cells [1]) was “quiescent” and the “OPTIMAL TEST CONC. (Phase II)” value (LNCaP cells [2]; [3]) was 100 ng/mL.
`CC(C)C(=O)Nc1ccc([N+](=O)[O-])c(C(F)(F)F)c1` [flutamide] was tested, and the “agonistic / proliferative activity, in words” value (LNCaP cells [1]) was “devoid of activity”, the CHARACTERISTICS (LNCaP cells [1]) was “quiescent” and the “PHASE 1 CELL COUNT” value (LNCaP cells [1]) was 5 × 10^4.
In the case of insulin: Insulin (Eli Lilly Company), the “OPTIMAL TEST CONC. (Phase 1)” value (LNCaP cells [1]) is reported as 100 ng/mL, the CHARACTERISTICS (LNCaP cells [1]) is reported as “quiescent” and the “PHASE 1 CELL COUNT” value (LNCaP cells [1]) is reported as 5 × 10^4. For the same molecule, the “OPTIMAL TEST CONC. (Phase II)” value (LNCaP cells [2]; [3]) was 100 ng/mL.
For `CC(=O)[C@H]1CC[C@H]2[C@@H]3CCC4=CC(=O)CC[C@]4(C)[C@H]3CC[C@]12C` [progesterone], the “agonistic / proliferative activity, in words” value (LNCaP cells [1]) was “effective and potent androgen agonists”, the CHARACTERISTICS (LNCaP cells [1]) was “full agonists” and the “PHASE 1 CELL COUNT” value (LNCaP cells [1]) was 4 × 10^5. For the same molecule, the “antagonistic activity, in words” value (LNCaP cells [2]) was “no antagonistic activity”.
`C[C@]12CCC(=O)C[C@H]1CC[C@@H]1[C@@H]2CC[C@]2(C)[C@@H](O)CC[C@@H]12` [5β-DHT, 5β-dihydrotestosterone] was tested, and the CHARACTERISTICS (LNCaP cells [1]) was “full agonist” and the “PHASE 1 CELL COUNT” value (LNCaP cells [1]) was 2.5 × 10^5.
For `CCC(=O)C1(C)CCC2C3CCC4=CC(=O)CCC4=C3CCC21C` (stereo not drawn) [R5020, 17βmethyl-,21-methyl-19-nor-pregna-4,9-diene-3,10-dione], the “RBA (relative binding affinity to the androgen receptor)” value (androgen receptor) was 11, the “agonistic / proliferative activity, in words” value (LNCaP cells [1]) was “effective and potent androgen agonists” and the “RELATIVE PROLIFERATIVE POTENCY” value (LNCaP cells [1]; Table II, 5α-DHT = 1.0, 5 × 10^4 cell inoculum grown in CDHS for 8 days) was 0.01. The CHARACTERISTICS (LNCaP cells [1]) was “full agonists”, the “PHASE 1 CELL COUNT” value (LNCaP cells [1]) was 4.0 × 10^5 and the “antagonistic activity, in words” value (LNCaP cells [2]) was “no antagonistic activity”.
`CC(C)(O)C(=O)Nc1ccc([N+](=O)[O-])c(C(F)(F)F)c1` [hydroxyflutamide] was tested, and the “RBA (relative binding affinity to the androgen receptor extracted from LNCaP)” value (androgen receptor; Table III, Testosterone = 1) was 0.004, the “cell yields compared with DHT alone, in words” value (LNCaP cells [1]) was “increased cell yields at values consistently above those obtained with DHT alone” and the “RPP (relative proliferation potency)” value (LNCaP cells [1]; Table III, Testosterone = 1, 10^5 cell inoculum grown in CDHS for 7 days) was 0.01. For the same molecule, the CHARACTERISTICS (LNCaP cells [1]) was “full agonist”, the “PHASE 1 CELL COUNT” value (LNCaP cells [1]) was 3.9 × 10^5 and the “antagonistic activity, in words” value (LNCaP cells [2]) was “absence of antagonistic effects”.
In the case of `C[C@]12CC[C@@H]3c4ccc(O)cc4CC[C@H]3[C@@H]1CCC2=O` [Estrone, estrone], the “RBA (relative binding affinity to the androgen receptor)” value (androgen receptor) is reported as 0.1.
With `CC(=O)O[C@]1(C(C)=O)CC[C@H]2[C@@H]3C=C(Cl)C4=CC(=O)[C@@H]5C[C@@H]5[C@]4(C)[C@H]3CC[C@@]21C` [cyproterone acetate] the “cell yields compared with DHT alone, in words” value (LNCaP cells [1]) was “increased cell yields at values consistently above those obtained with DHT alone”, the CHARACTERISTICS (LNCaP cells [1]) was “full agonist” and the “PHASE 1 CELL COUNT” value (LNCaP cells [1]) was 4.1 × 10^5.
With `C[C@]1(O)CC[C@H]2[C@@H]3CCC4=CC(=O)CCC4=C3C=C[C@@]21C` [R1881, 17β-hydroxy-17α-methyl-estra-4,9,11-trien-3-one] the CHARACTERISTICS (LNCaP cells [1]) was “full agonists”, the “PHASE 1 CELL COUNT” value (LNCaP cells [1]) was 2.5 × 10^5 and the “antagonistic activity, in words” value (LNCaP cells [2]) was “no antagonistic activity”.
For `C[C@@H]1CC2=CC(=O)CC[C@@H]2[C@H]2CC[C@@]3(C)[C@@H](CC[C@]3(C)O)[C@@H]21` [mibolerone, 7α,17α-dimethyl-19-nortestosterone], the CHARACTERISTICS (LNCaP cells [1]) was “full agonist” and the “PHASE 1 CELL COUNT” value (LNCaP cells [1]) was 2.5 × 10^5.
